In patent US20160151412A1, “COMBINATION OF XENON WITH AN NMDA RECEPTOR ANTAGONIST FOR FIGHTING A NEURODEGENERATIVE DISEASE” (L'AIR LIQUIDE, SOCIETE ANONYME POUR L'ETUDE ET …, priority 2013, published 2016):

Tested on: rat cortex cultures (cortical neurons)
Test: Neuronal survival (MAP-2 positive cell counts) in rat cortex cultures with PDC-induced chronic cortical degeneration under controlled gas atmosphere
Format: cell-based
Design: key to Neuronal survival: +++=reference level; ++: a favorable response, synonymous with a decrease in neuronal cell death in the presence of the treatments of interest; +: a favorable response, synonymous with a decrease in neuronal cell death in the presence of the treatments of interest; an unfavorable response is represented by a “−” sign, synonymous with an increase in neuronal death
Description: Cultures are prepared from rat embryo cortex taken from Wistar rates, on day 15.5 of gestation. The method for obtaining cortex cultures comprises the preparation of a homogeneous cell suspension by mechanical, i.e., non-enzymatic, dissociation of embryonic tissue using Leibovitz's L15 medium (Sigma Aldrich). Aliquots of this suspension are added to Nunc 48-well plates coated beforehand with a thin layer of polyethylenimine (1 mg/ml, borate buffer, pH 8.3) to allow neuronal cells to adhere (see Toulorge et al., Faseb J, 2011). The seeding density is between about 20,000 and 30,000 cells/cm^2. The cortex cultures are maintained in Neurobasal culture medium containing an […] B27 cocktail, N2 supplement, glutamine (2 mM) and a penicillin/streptomycin cocktail (see Nafia et al., J Neurochem, 2008). The medium and the supplement are available from Life Technologies. Six hours after placing in culture, 0.5 μM of the antimitotic cytarabine (Sigma Aldrich) is added to limit the proliferation of astrocytes. Until the moment when the effects of the gases of interest are evaluated, the cultures are placed in a conventional enclosure thermostated at 37° C., wherein CO2 is maintained at 5% by volume and the atmosphere is saturated with water. The culture medium is not changed during the culture period. The degenerative process is triggered by applying a glutamate reuptake system blocker, PDC (Zuiderwijk et al., Europ J Pharmacol, 1994). The NMDA receptor blocker, memantine, is added to the cultures before the application of PDC. These two products (PDC and memantine) are from RD Systems. Once the pharmacological treatments are carried out, the multi-well plates containing the cells in culture and the plate used for humidification of the internal compartment of the chamber are placed on a metal base that receives the Plexiglas incubation chamber. The two parts (base and Plexiglas chamber) are screwed together in a joined manner. A gas mixture of interest comprising (% by volume): 20% O2, 5% CO2 and 75% of the gas tested is then injected into the incubation chamber, with inlet and outlet valves open, while controlling the outlet flow by means of a flowmeter. The gases tested are nitrogen and xenon. The reference outlet flow, set for air at 10 liters/minute, is corrected as a function of the density of the mixture used. When the CO2 measurement at the outlet reaches 5%, the injection of the gas mixture is stopped and the chamber is completely sealed by closing the inlet and outlet valves. The exposure chamber is then placed in a 37° C. enclosure throughout the experimental protocol. After breaking the seal by opening the inlet and outlet valves and unscrewing the chamber from its base, the cultures are fixed with 4% formaldehyde in PBS for 12 minutes and then incubated at 4° C. with a monoclonal anti-MAP-2 antibody (dilution 1:200; clone AP-20; Sigma-Aldrich) for 3 days. This antibody is detected with an anti-mouse secondary antibody coupled with cyanine-3 (Sigma Aldrich; dilution 1:1000 in PBS). Image capturing is carried out with the 10× objective using a Nikon TE-300 inverted microscope equipped with an ORCA-ER cooled digital camera and HCl image capturing software (Hamamatsu). […] The cultures are then collected for fixing and analysis. Neuronal survival is quantified in the various experimental conditions tested by counting the number of cell bodies immunopositive for the pan-neuronal marker MAP-2.

## O=C(O)[C@H]1CN[C@H](C(=O)O)C1 (relative stereo) [PDC, L-trans-pyrrolidine-2,4-dicarboxylic acid]
PDC 30 μM, 75% N2, days 12-16
  Neuronal survival: −
PDC 30 μM, 75% nitrogen
  loss of cortical neuronal cells: about 85%
PDC 30 μM, 75% nitrogen, % of cultures not treated with PDC under 75% nitrogen
  survival rate: 15.9%

## [Xe] [Xe, xenon]
PDC 30 μM, 75% Xe, days 12-16
  Neuronal survival: ++
PDC 30 μM, 75% xenon without memantine, n=6
  effect on neuronal survival versus nitrogen-alone condition (ANOVA, Student-Newman-Keuls, p<0.05): significantly superior to that of the nitrogen-alone condition
No PDC, 20% O2 + 5% CO2 + 75% Xe, days 12-16, day-16 cortex cultures
  Neuronal survival: +++

## CC12CC3CC(C)(C1)CC(N)(C3)C2 [memantine]
PDC 30 μM + memantine 0.1 μM alone, 75% nitrogen
  effect on neuronal survival: no significant effect
PDC 30 μM + memantine 0.1 μM, 75% N2, days 12-16
  Neuronal survival: −
PDC 30 μM + memantine 1 μM by itself, 75% nitrogen
  survival rate: 54.6%
PDC 30 μM + memantine 1 μM, 75% N2, days 12-16
  Neuronal survival: ++
PDC 30 μM + memantine 10 μM itself, 75% nitrogen
  neuronal cells saved: more than 90%
PDC 30 μM + memantine 10 μM, 75% N2, days 12-16
  Neuronal survival: +++
